Measurements from PMC6153936, “Bisarylureas Based on 1H-Pyrazolo[3,4-d]pyrimidine Scaffold as Novel Pan-RAF Inhibitors with Potent Anti-Proliferative Activities: Structure-Based Design, Synthesis, Biological Evaluation and Molecular Modelling Studies” (Molecules : A Journal of Synthetic Chemistry and Natural …, 2017).

Columns and labels:
A375 = experiment: MTT anti-proliferative assay, A375; type: cell-based; conditions: Homo sapiens, A-375, 48 h
Description: (§2) All cell lines were purchased from Cell Bank of China Science Academy (Shanghai, China). All chemicals and solvents were purchased from Sigma-Aldrich (St. Louis, MO, USA) or Gibco (Gibco BRL, Grand Island, NY, USA). The PC-3 and A375 cell lines was maintained in Dulbecco's modified eagle (DEME) medium supplement with 10% fetal bovine serum (FBS) and 1% penicillin–streptomycin. The others were cultured in Roswell Park Memorial Institute (RPMI) 1640 medium supplement with 10% fetal bovine serum (FBS) and 1% penicillin–streptomycin. Approximately 5 × 10^3 cells, suspended in medium, were plated into each well of a 96-well plate and grown at 37 °C in a humidified atmosphere with 5% CO2 for 24 h. The following day, various concentrations of tested compounds were added to the culture medium and incubated for 48 h. Fresh MTT was added to each well at the terminal concentration of 5 mg/mL in phosphate buffered saline (PBS), and incubated with cells at 37 °C for 4 h. The formazan crystals in each well were dissolved in 150 μL DMSO, and the absorbency at 570 nm was measured with an enzyme-linked immunosorbent assay plate reader. All of the compounds were tested three times in each of the cell lines.

A549 = experiment: MTT anti-proliferative assay, A549; type: cell-based, human; conditions: Homo sapiens, A549; MTT, 48 h
Description: as §2

in vitro = conditions: dog
Description: as §2

PC-3 = experiment: MTT anti-proliferative assay, PC-3; type: cell-based, human; conditions: Homo sapiens, PC-3; MTT, 48 h
Description: as §2

BRAF^V600E = target: T1, BRAF^V600E (Homo sapiens, UniProt P15056, V600E); experiment: BRAF^V600E kinase inhibition, Z'-LYTE; type: biochemical; conditions: for inhibition at 0.1 µM: 100 nM
T1 construct: purchased Life Technologies
Description: The experiments were performed according to the instructions of the manufacturer, and single point concentration testing with two independent data points (n = 2). […] The IC50 values were calculated from the inhibition curves from two separate experiments.

HT-29 = experiment: MTT anti-proliferative assay, HT-29; type: cell-based; conditions: Homo sapiens, 48 h
Description: as §2

LCK = LCK (Homo sapiens, UniProt P06239); experiment: Kinase selectivity profile; type: biochemical
VEGFR-2 = VEGFR-2 (Homo sapiens, UniProt P35968); experiment: Kinase selectivity profile; type: biochemical
[1] = tested on: phosphor-MEK protein in HT-29 cell line; experiment: Western blot of phosphor-MEK, HT-29; type: cell-based, human; conditions: HT-29, 48 h treatment
Description: (§1) Total cells were harvested after treatment, washed twice with cold PBS, and lysed with RIPA lysis buffer (KeyGEN BioTECH, Nanjing, China) including 1% cocktail (Selleck Chemicals, Houston, TX, USA). Lysates were centrifuged at 12,000× g at 4 °C for 15 min, and the supernatant was collected. Total protein concentration was quantified using the bicinchoninic acid (BCA; Beyotime Institute of Biotechnology, Nanjing, China) protein assay kit (Sigma Chemical Co., St. Louis, MO, USA). The proteins were separated electrophoretically using 10% sodium dodecyl sulfate polyacrylamide gel electrophoresis (SDS-PAGE) and then the gel was transferred onto polyvinylidene fluoride (PVDF; Millipore, Billerica, MA, USA) membranes. […] The immunobands were detected with an enhanced chemiluminescence kit (Beyotime Institute of Biotechnology, Nanjing, China).

[2] = MTT cytotoxic assay, normal cell line MDCK; conditions: dog, MDCK cells (normal cell line)
Description: as §2

FLT1 (VEGFR1) = FLT1 (VEGFR1) (Homo sapiens, UniProt P17948); experiment: Kinase selectivity profile; type: biochemical
ErbB2 (HER2) = ErbB2 (HER2) (Homo sapiens, UniProt P04626); experiment: Kinase selectivity profile; type: biochemical
EPHA2 = EPHA2 (Homo sapiens, UniProt P29317); experiment: Kinase selectivity profile; type: biochemical
[3] = tested on: phosphor-MEK protein in A375 cell line; experiment: Western blot of phosphor-MEK, A375; type: cell-based, human; conditions: A375, 48 h treatment
Description: as §1

ABL2 (Arg) = ABL2 (Arg) (Homo sapiens, UniProt P42684); experiment: Kinase selectivity profile; type: biochemical
EGFR (ErbB1) = EGFR (ErbB1) (Homo sapiens, UniProt P00533); experiment: Kinase selectivity profile; type: biochemical
BRAF (wt) = BRAF (wt) (Homo sapiens, UniProt P15056); experiment: Kinase selectivity profile; type: biochemical
LTK (TYK1) = LTK (TYK1) (Homo sapiens, UniProt P29376); experiment: Kinase selectivity profile; type: biochemical
ALK = ALK (Homo sapiens, UniProt Q9UM73); experiment: Kinase selectivity profile; type: biochemical
FLT4 (VEGFR3) = FLT4 (VEGFR3) (Homo sapiens, UniProt P35916); experiment: Kinase selectivity profile; type: biochemical
AURKA (Aurora A) = AURKA (Aurora A) (Homo sapiens, UniProt O14965); experiment: Kinase selectivity profile; type: biochemical
A375 cell line = experiment: Flow cytometric analysis of cell cycle distribution; type: cell-based, human; conditions: for G0/G1 (%) / G2/M (%) / S (%) / Sub-G1 (%): 48 h
Description: The effect of compound 1v on cell cycle phase distribution of human malignant melanoma A375 was assessed using flow cytometry. When the cells grew to about 70% confluence in 6-well microplates, they were treated with compound 1v at given concentrations (6.11 μmol/L, 12.21 μmol/L, 24.42 μmol/L). After 48 h, cells were harvested by trypsinization, washed with PBS, and fixed in 70% ice cold (4 °C) ethanol overnight. They were then washed with PBS, incubated with Ribonuclease (RNase) ([…] final concentration) at 37 °C for 30 min, stained with propidium iodide ([…] final concentration), and analyzed by flow cytometry (BD FACS Canto II, BD Biosciences, San Jose, CA, USA).

ErbB4 (HER4) = ErbB4 (HER4) (Homo sapiens, UniProt Q15303); experiment: Kinase selectivity profile; type: biochemical
MET (c-Met) = MET (c-Met) (Homo sapiens, UniProt P08581); experiment: Kinase selectivity profile; type: biochemical
AURKB (Aurora B) = AURKB (Aurora B) (Homo sapiens, UniProt Q96GD4); experiment: Kinase selectivity profile; type: biochemical
MST1R (RON) = MST1R (RON) (Homo sapiens, UniProt Q04912); experiment: Kinase selectivity profile; type: biochemical
PTK2 (FAK) = PTK2 (FAK) (Homo sapiens, UniProt Q05397); experiment: Kinase selectivity profile; type: biochemical
ABL1 = ABL1 (Homo sapiens, UniProt P00519); experiment: Kinase selectivity profile; type: biochemical
RAF1 (CRAF) = RAF1 (CRAF) (Homo sapiens, UniProt P04049); experiment: Kinase selectivity profile; type: biochemical
[4] = average of two independent experiments
[5] = 1000 nM, average of two independent experiments

T1 sequence (P15056 whole entry V600E): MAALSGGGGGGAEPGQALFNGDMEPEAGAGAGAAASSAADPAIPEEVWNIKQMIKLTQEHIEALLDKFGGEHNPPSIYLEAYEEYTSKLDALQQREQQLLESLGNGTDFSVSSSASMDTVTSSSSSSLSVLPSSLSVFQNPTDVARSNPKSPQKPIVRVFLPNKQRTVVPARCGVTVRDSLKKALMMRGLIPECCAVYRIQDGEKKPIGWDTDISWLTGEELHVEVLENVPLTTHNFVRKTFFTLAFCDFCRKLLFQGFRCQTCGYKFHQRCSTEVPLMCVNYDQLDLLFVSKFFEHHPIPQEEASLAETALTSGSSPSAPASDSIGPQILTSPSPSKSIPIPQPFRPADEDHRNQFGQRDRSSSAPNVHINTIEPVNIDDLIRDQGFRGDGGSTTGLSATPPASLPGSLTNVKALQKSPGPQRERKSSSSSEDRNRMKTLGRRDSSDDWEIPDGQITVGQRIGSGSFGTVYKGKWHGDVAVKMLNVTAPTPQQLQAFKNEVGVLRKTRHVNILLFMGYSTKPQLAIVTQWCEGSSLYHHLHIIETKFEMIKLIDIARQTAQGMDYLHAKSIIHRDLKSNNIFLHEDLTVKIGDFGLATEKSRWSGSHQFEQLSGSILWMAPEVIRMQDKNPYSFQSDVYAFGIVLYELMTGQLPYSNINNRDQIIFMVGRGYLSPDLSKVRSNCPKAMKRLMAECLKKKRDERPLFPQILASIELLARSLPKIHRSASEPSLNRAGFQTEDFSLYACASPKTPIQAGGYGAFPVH
BRAF (wt), sequence (P15056 whole entry): as the sequence (P15056 whole entry V600E) above, with E600V counted along it
RAF1 (CRAF), sequence (P04049 342-648 limits assumed): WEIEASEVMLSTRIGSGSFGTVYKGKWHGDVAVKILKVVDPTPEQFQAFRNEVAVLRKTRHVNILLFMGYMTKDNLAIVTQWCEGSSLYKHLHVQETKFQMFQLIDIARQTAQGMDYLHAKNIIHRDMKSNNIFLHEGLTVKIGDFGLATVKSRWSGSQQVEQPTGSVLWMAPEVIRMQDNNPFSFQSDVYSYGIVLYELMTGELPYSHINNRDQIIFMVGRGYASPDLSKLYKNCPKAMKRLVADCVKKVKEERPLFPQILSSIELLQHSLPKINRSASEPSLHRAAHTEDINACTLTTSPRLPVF
MST1R (RON), sequence (Q04912 25-1400): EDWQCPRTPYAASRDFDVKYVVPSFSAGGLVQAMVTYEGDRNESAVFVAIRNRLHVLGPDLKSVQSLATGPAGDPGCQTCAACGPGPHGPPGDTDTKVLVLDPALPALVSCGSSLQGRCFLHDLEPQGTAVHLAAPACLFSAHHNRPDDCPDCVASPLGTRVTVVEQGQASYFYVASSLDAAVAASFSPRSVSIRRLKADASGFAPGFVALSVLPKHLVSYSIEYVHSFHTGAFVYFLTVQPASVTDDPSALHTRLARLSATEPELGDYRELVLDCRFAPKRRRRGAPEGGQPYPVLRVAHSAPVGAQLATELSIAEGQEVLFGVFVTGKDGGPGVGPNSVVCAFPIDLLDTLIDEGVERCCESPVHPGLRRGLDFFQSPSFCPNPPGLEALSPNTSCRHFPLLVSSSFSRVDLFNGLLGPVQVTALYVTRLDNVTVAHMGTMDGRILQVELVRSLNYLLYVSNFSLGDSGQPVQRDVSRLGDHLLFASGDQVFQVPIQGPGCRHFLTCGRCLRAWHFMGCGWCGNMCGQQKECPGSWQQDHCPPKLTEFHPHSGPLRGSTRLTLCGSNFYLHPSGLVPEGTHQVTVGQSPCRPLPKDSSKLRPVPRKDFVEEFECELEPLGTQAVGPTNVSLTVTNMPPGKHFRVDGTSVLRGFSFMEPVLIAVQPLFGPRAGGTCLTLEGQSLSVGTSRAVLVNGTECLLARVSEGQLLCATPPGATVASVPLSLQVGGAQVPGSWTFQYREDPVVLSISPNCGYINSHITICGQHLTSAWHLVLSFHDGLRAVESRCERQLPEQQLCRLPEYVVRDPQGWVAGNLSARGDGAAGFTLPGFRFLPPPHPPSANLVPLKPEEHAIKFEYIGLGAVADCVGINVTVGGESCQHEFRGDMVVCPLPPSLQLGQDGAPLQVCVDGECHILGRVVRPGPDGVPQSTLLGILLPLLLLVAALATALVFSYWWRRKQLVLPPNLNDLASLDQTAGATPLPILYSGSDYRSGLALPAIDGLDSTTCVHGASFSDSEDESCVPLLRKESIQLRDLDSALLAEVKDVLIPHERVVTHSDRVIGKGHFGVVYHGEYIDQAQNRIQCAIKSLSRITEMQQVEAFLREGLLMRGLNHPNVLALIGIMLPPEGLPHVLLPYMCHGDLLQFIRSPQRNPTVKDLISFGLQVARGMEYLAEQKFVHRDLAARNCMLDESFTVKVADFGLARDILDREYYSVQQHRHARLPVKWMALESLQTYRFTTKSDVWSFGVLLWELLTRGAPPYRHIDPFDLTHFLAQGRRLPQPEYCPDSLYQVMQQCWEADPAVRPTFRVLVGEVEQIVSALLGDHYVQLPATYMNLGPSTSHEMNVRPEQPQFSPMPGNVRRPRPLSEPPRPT
ABL1, sequence (P00519 whole entry): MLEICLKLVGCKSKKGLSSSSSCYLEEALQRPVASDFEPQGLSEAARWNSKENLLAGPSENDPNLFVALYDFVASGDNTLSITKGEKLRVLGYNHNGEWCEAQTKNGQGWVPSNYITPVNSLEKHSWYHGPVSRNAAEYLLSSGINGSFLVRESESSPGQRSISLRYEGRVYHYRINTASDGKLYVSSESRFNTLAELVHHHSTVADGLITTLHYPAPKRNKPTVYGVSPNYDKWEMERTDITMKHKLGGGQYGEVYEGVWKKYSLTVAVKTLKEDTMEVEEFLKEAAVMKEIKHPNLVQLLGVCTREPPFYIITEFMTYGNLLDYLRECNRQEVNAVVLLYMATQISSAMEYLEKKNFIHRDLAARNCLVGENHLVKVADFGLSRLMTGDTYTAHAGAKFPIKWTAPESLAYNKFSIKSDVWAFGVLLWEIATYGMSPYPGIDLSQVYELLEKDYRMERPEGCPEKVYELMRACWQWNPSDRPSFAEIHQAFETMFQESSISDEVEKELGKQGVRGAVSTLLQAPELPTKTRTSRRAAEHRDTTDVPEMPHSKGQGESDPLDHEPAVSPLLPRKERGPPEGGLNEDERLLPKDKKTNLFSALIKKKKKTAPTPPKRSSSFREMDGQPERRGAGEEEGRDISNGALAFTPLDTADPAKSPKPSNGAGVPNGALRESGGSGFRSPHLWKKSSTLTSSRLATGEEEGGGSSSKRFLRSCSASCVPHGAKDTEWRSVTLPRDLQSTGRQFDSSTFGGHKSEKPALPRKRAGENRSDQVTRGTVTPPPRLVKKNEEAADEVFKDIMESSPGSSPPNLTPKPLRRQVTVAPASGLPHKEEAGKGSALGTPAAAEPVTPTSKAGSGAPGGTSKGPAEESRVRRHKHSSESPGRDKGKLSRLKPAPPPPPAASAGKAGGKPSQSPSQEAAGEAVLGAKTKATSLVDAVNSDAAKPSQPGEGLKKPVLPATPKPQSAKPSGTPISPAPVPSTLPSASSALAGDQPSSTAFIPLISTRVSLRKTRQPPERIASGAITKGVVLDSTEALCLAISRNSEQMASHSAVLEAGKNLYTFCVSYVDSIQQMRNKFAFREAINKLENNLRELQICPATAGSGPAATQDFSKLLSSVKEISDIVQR
ErbB2 (HER2), sequence (P04626 23-1255): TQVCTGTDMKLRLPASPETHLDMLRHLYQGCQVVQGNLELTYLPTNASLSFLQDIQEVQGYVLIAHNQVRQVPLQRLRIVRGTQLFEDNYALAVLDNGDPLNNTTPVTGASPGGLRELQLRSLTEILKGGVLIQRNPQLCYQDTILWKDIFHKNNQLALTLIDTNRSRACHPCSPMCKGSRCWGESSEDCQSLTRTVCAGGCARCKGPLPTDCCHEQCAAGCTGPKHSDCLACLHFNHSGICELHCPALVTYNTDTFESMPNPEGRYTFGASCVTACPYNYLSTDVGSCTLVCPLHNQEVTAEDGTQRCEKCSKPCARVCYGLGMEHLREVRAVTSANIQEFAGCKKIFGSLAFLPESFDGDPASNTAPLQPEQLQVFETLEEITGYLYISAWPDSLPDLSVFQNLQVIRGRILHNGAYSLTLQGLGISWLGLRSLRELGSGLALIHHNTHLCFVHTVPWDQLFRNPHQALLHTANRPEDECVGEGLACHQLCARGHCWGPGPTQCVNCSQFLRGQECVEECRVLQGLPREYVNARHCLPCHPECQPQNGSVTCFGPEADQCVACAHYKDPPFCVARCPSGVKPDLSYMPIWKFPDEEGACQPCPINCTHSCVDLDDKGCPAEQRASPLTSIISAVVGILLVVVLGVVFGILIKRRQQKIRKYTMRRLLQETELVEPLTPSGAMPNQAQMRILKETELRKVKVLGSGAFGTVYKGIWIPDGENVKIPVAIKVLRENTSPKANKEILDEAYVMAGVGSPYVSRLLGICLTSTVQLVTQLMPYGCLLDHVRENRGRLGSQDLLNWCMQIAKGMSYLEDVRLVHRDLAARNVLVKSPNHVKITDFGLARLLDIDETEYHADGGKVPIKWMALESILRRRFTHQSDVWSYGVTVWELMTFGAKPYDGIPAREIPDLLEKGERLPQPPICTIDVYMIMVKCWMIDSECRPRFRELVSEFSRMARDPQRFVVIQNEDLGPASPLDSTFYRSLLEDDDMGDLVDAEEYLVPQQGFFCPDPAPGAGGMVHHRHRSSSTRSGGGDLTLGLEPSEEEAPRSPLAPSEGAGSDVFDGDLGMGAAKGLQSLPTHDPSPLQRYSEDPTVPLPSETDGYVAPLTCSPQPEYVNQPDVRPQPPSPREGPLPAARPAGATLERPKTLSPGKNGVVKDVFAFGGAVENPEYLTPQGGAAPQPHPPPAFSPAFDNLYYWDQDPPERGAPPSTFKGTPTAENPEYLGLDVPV

O=C(Nc1ccc(Oc2ncnc3[nH]ncc23)cc1)Nc1ccc(Cl)c(C(F)(F)F)c1 [Compound 1a, 1-(4-((1H-Pyrazolo[3,4-d]pyrimidin-4-yl)oxy)phenyl)-3-(4-chloro-3-(trifluoromet-hyl)phenyl)urea]
IC50 (A375): 29.3 µM | IC50 (A549): 19.8 µM | IC50 at 48 h (in vitro): 17.8 µM | IC50 (PC-3): 19.5 µM | inhibition at 0.1 µM (BRAF^V600E; [4]): 37% | inhibition at 1 µM (BRAF^V600E; [5]): 90% | IC50 (HT-29): > 80 µM

O=C(Nc1ccccc1)Nc1ccc(Oc2ncnc3[nH]ncc23)cc1 [Compound 1e, 1-(4-((1H-Pyrazolo[3,4-d]pyrimidin-4-yl)oxy)phenyl)-3-phenylurea]
IC50 (A375): > 80 µM | IC50 (A549): > 80 µM | IC50 at 48 h (in vitro): > 80 µM | IC50 (PC-3): > 80 µM | BRAF^V600E (%) inhibition at 1000 nM (BRAF^V600E; [5]): no inhibitory activity | inhibition at 1 µM (BRAF^V600E; [5]): 1% | IC50 (HT-29): > 80 µM | melting point: 247.3 to 249.2 °C

Cn1ncc2c(Oc3ccc(NC(=O)Nc4ccc(Cl)c(C(F)(F)F)c4)cc3)ncnc21 [Compound 1v, 1-(4-Chloro-3-(trifluoromethyl)phenyl)-3-(4-((1-methyl-1H-pyrazolo[3,4-d]pyrimidin-4-yl)oxy)phenyl)urea]
Inhibition % at 1 μΜ, LCK (LCK): 20% | Inhibition % at 1 μΜ, VEGFR-2 (VEGFR-2): 56% | phosphor-MEK levels (western blot) [1]: suppressed phosphor-MEK levels in a concentration-dependent manner | IC50 at 48 h [2]: > 80 µM | Inhibition % at 1 μΜ, FLT1 (VEGFR1) (FLT1 (VEGFR1)): 31% | IC50 (A375): 12.2 µM | IC50 (A549): 12.5 µM | Inhibition % at 1 μΜ, ErbB2 (HER2) (ErbB2 (HER2)): −7% | Inhibition % at 1 μΜ, EPHA2 (EPHA2): 2% | phosphor-MEK levels (western blot) [3]: suppressed phosphor-MEK levels in a concentration-dependent manner | Inhibition % at 1 μΜ, ABL2 (Arg) (ABL2 (Arg)): 4% | Inhibition % at 1 μΜ, EGFR (ErbB1) (EGFR (ErbB1)): 8% | Inhibition % at 1 μΜ, BRAF (wt) (BRAF (wt); 1 μΜ): 105% | IC50 (BRAF (wt); in parentheses in Table 4, read-out: wild-type BRAF IC50): 0.0515 µM | IC50 (PC-3): 23.4 µM | Inhibition % at 1 μΜ, LTK (TYK1) (LTK (TYK1)): 3% | inhibition at 0.1 µM (BRAF^V600E; [4]): 81% | inhibition at 1 µM (BRAF^V600E; [5]): 97% | IC50 (BRAF^V600E; ten concentrations 1000 to 0.0508 nM, two independent experiments): 0.0236 µM | IC50 (HT-29): 14.7 µM | Inhibition % at 1 μΜ, ALK (ALK): 7% | Inhibition % at 1 μΜ, FLT4 (VEGFR3) (FLT4 (VEGFR3)): 58% | Inhibition % at 1 μΜ, AURKA (Aurora A) (AURKA (Aurora A)): 17% | G0/G1 (%) (A375 cell line; A375, 6.11 μmol/L): 42.53% | G2/M (%) (A375 cell line; A375, 6.11 μmol/L): 10.94% | S (%) (A375 cell line; A375, 6.11 μmol/L): 38.25% | Sub-G1 (%) (A375 cell line; A375, 6.11 μmol/L): 4.39% | G0/G1 (%) (A375 cell line; A375, 12.21 μmol/L): 47.94% | G2/M (%) (A375 cell line; A375, 12.21 μmol/L): 7.39% | S (%) (A375 cell line; A375, 12.21 μmol/L): 38.13% | Sub-G1 (%) (A375 cell line; A375, 12.21 μmol/L): 2.12% | G0/G1 (%) (A375 cell line; A375, 24.42 μmol/L): 52.73% | G2/M (%) (A375 cell line; A375, 24.42 μmol/L): 5.48% | S (%) (A375 cell line; A375, 24.42 μmol/L): 36.19% | Sub-G1 (%) (A375 cell line; A375, 24.42 μmol/L): 5.48% | effect on cell cycle progression (A375 cell line; A375, 48 h, G0/G1 phase): dose-dependent cell cycle arrest | Inhibition % at 1 μΜ, ErbB4 (HER4) (ErbB4 (HER4)): 7% | melting point: 212.1 to 213 °C | Inhibition % at 1 μΜ, MET (c-Met) (MET (c-Met)): 6% | Inhibition % at 1 μΜ, AURKB (Aurora B) (AURKB (Aurora B)): 42% | Inhibition % at 1 μΜ, MST1R (RON) (MST1R (RON)): −2% | Inhibition % at 1 μΜ, PTK2 (FAK) (PTK2 (FAK)): 13% | Inhibition % at 1 μΜ, ABL1 (ABL1): 5% | Inhibition % at 1 μΜ, RAF1 (CRAF) (RAF1 (CRAF); 1 μΜ): 102% | IC50 (RAF1 (CRAF); in parentheses in Table 4, read-out: C-RAF IC50): 0.0085 µM

O=C(Nc1ccc(Oc2ncnc3[nH]ncc23)cc1)Nc1ccc(Cl)c(Cl)c1 [Compound 1c, 1-(4-((1H-Pyrazolo[3,4-d]pyrimidin-4-yl)oxy)phenyl)-3-(3,4-dichlorophenyl)urea]
IC50 at 48 h [2]: 35.5 µM | IC50 (A375): 29.7 µM | IC50 (A549): 16.2 µM | IC50 (PC-3): 11.2 µM | inhibition at 0.1 µM (BRAF^V600E; [4]): 27% | inhibition at 1 µM (BRAF^V600E; [5]): 83% | IC50 (HT-29): 15.2 µM | melting point: 245 to 247.2 °C

Cc1cccc(NC(=O)Nc2ccc(Oc3ncnc4[nH]ncc34)cc2)c1C [Compound 1h, 1-(4-((1H-Pyrazolo[3,4-d]pyrimidin-4-yl)oxy)phenyl)-3-(2,3-dimethylphenyl)urea]
IC50 (A375): > 80 µM | IC50 (A549): > 80 µM | IC50 at 48 h (in vitro): > 80 µM | IC50 (PC-3): 11.7 µM | inhibition at 1 µM (BRAF^V600E; [5]): 27% | IC50 (HT-29): > 80 µM | melting point: 250.4 to 252.3 °C
